Experimental findings from ChEMBL document CHEMBL3045179, “Mode of Action and QSAR Studies of Nitrification Inhibitors” (J Pestic Sci, 1997) are described below.

Data set [1] is described as follows: Octanol-water partition coefficient, log P of the compound. It counts as physicochemical. The following applies: read-out: logP.
For data set [2], the system named is Nitrosomonas europaea. Put plainly: Inhibition of Nitrosomonas europaea ATCC 25978-mediated nitrification activity assessed as nitrite nitrogen formation after 7 to 10 days by Griess-Ilosvay method. It counts as functional, organism-based. The following applies: read-out: pI50 (converted).
In data set [3] the test system is Nitrosomonas europaea. Put plainly: Inhibition of Nitrosomonas europaea ATCC 25978-mediated nitrification activity assessed as nitrite nitrogen formation at 0.1 mg/kg after 7 to 10 days by Griess-Ilosvay method relative to control. The following applies: values are per cent of control. It counts as functional.
The test system of data set [4] is Nitrosomonas sp. TK794. The data set is described as follows: Inhibition of Nitrosomonas sp. TK794-mediated nitrification activity assessed as nitrite nitrogen formation at 1 mg/kg after 7 to 10 days by Griess-Ilosvay method relative to control. It counts as functional. A general note: The Griess reaction detects nitrite, a stable product of nitric oxide.
Data set [5] concerns Nitrosomonas europaea. Put plainly: Inhibition of Nitrosomonas europaea ATCC 25978-mediated nitrification activity assessed as nitrite nitrogen formation at 1 mg/kg after 7 to 10 days by Griess-Ilosvay method relative to control. In kind it is functional. The following applies: values are per cent of control.
The subject of data set [6] is Nitrosomonas sp. TK794. The data set is described as follows: Inhibition of Nitrosomonas sp. TK794-mediated nitrification activity assessed as nitrite nitrogen formation at 5 mg/kg after 7 to 10 days by Griess-Ilosvay method relative to control. It counts as functional.
Data set [7] deals with Nitrosomonas sp. TK794. The data set is described as follows: Inhibition of Nitrosomonas sp. TK794-mediated nitrification activity assessed as nitrite nitrogen formation at 200 mg/kg after 7 to 10 days by Griess-Ilosvay method relative to control. In kind it is functional.
The test system of data set [8] is Nitrosomonas europaea. Put plainly: Inhibition of Nitrosomonas europaea ATCC 25978-mediated nitrification activity assessed as nitrite nitrogen formation at 10 mg/kg after 7 to 10 days by Griess-Ilosvay method relative to control. It counts as functional.
Data set [9] relates to Nitrosomonas sp. TK794. The data set is described as follows: Inhibition of Nitrosomonas sp. TK794-mediated nitrification activity assessed as nitrite nitrogen formation at 0.5 mg/kg after 7 to 10 days by Griess-Ilosvay method relative to control. In kind it is functional.
The subject of data set [10] is Nitrosomonas europaea. The data set is described as follows: Inhibition of Nitrosomonas europaea ATCC 25978-mediated nitrification activity assessed as nitrite nitrogen formation at 0.5 mg/kg after 7 to 10 days by Griess-Ilosvay method relative to control. It counts as functional. The following applies: values are per cent of control.

Regarding `COc1nc(-c2ccccc2)nc(C(Cl)(Cl)Cl)n1`, the log partition coefficient (logP) (as a rule, the decadic logarithm of the partition coefficient of the neutral form, usually between octanol and water) in [1] worked out at 5.17. In addition, the IC50 in the data set with Nitrosomonas europaea [2] was 229 nM. Besides, in the data set on Nitrosomonas europaea [3], the residual activity (usually the signal under treatment as a percentage of the control signal) at 0.1 mg/kg turned out to be 31.4%. The inhibition in vivo (usually the relative decrease from the control value, in per cent) at 1 mg/kg with Nitrosomonas sp. TK794 [4] stood at 39%.
For the compound `CCOc1nc(-c2ccccc2)nc(C(Cl)(Cl)Cl)n1`, in data set [1], the log partition coefficient (logP) was 5.7. Also, the IC50 in the data set with Nitrosomonas europaea [2] is 1050 nM. The residual activity at 1 mg/kg in the data set on Nitrosomonas europaea [5] stood at 31.4%. Further, in the data set on Nitrosomonas sp. TK794 [4], the inhibition in vivo at 1 mg/kg is 51.2%.
With `CCCOc1nc(-c2ccccc2)nc(C(Cl)(Cl)Cl)n1`, the lipophilicity (logP) in [1] came to 6.22. The IC50 with Nitrosomonas europaea [2] was 3390 nM. Moreover, the residual activity at 1 mg/kg in the data set on Nitrosomonas europaea [5] worked out at 48.5%. For the same compound, the inhibition in vivo at 5 mg/kg in the data set on Nitrosomonas sp. TK794 [6] stood at 47.9%.
`CCOc1nc(SC)nc(C(Cl)(Cl)Cl)n1`: in [1], the log partition coefficient (logP) amounted to 4.64. Besides, the IC50 in the data set on Nitrosomonas europaea [2] was 676 nM. The residual activity at 0.1 mg/kg in the data set with Nitrosomonas europaea [3] turned out to be 64.8%. Besides, the inhibition in vivo at 1 mg/kg with Nitrosomonas sp. TK794 [4] is 60%.
With `CCCOc1nc(SC)nc(C(Cl)(Cl)Cl)n1`, the lipophilicity (logP) in [1] was determined as 5.17. For the same compound, the IC50 in the data set on Nitrosomonas europaea [2] is 257 nM. Further, the residual activity at 0.1 mg/kg in the data set with Nitrosomonas europaea [3] is 47.6%. The inhibition in vivo at 1 mg/kg in the data set on Nitrosomonas sp. TK794 [4] stood at 60%.
As to `ClC(Cl)(Cl)c1nc(-c2ccccc2)nc(C(Cl)(Cl)Cl)n1`, the inhibition in vivo at 200 mg/kg in the data set on Nitrosomonas sp. TK794 [7] worked out at 65.8%. For the same compound, the logP in [1] came out at 5.26.
Regarding `Nc1nc(C(Cl)(Cl)Cl)nc(C(Cl)(Cl)Cl)n1`, the logP in data set [1] turned out to be 2.45. In addition, in the data set with Nitrosomonas sp. TK794 [4], the inhibition in vivo at 1 mg/kg amounted to 56.2%.
Turning to `CNc1nc(C(Cl)(Cl)Cl)nc(C(Cl)(Cl)Cl)n1`, the logP in [1] amounted to 3.14. For the same compound, the IC50 in the data set on Nitrosomonas europaea [2] was 589 nM. In the data set on Nitrosomonas europaea [3], the residual activity at 0.1 mg/kg was determined as 69.6%.
The corresponding values for `CCNc1nc(C(Cl)(Cl)Cl)nc(C(Cl)(Cl)Cl)n1` are 3.68, 257 nM and 52.7%.
The corresponding values for `CCCNc1nc(C(Cl)(Cl)Cl)nc(C(Cl)(Cl)Cl)n1` are 4.19, 219 nM and 60%.
As to `CCCCNc1nc(C(Cl)(Cl)Cl)nc(C(Cl)(Cl)Cl)n1`, in data set [1], the logP was determined as 4.72. Besides, the IC50 in the data set on Nitrosomonas europaea [2] is 977 nM. For the same compound, the residual activity at 0.1 mg/kg in the data set with Nitrosomonas europaea [3] was 72.4%.
The corresponding values for `CCCCCNc1nc(C(Cl)(Cl)Cl)nc(C(Cl)(Cl)Cl)n1` are 5.25, 1230 nM and 67.1%.
Turning to `CCCCCCNc1nc(C(Cl)(Cl)Cl)nc(C(Cl)(Cl)Cl)n1`, the log partition coefficient (logP) in data set [1] turned out to be 5.79. The IC50 in the data set with Nitrosomonas europaea [2] is 1660 nM. The residual activity at 1 mg/kg with Nitrosomonas europaea [5] came to 42.7%.
With `CCCCCCCCCCNc1nc(C(Cl)(Cl)Cl)nc(C(Cl)(Cl)Cl)n1`, the inhibition in vivo at 10 mg/kg in the data set on Nitrosomonas europaea [8] worked out at 36.8%. Moreover, the logP in data set [1] was found to be 7.9. Moreover, the IC50 in the data set with Nitrosomonas europaea [2] was 10500 nM.
`ClC(Cl)(Cl)c1nc(Nc2ccccc2)nc(C(Cl)(Cl)Cl)n1`: in data set [1], the logP was found to be 4.33. In addition, in the data set on Nitrosomonas sp. TK794 [9], the inhibition in vivo at 0.5 mg/kg was 55%.
The corresponding values for `CN(C)c1nc(C(Cl)(Cl)Cl)nc(C(Cl)(Cl)Cl)n1` are 3.7 and 60.5%.
As to `COc1nc(C(Cl)(Cl)Cl)nc(C(Cl)(Cl)Cl)n1`, the logP in data set [1] is 3.59. Also, the IC50 in the data set with Nitrosomonas europaea [2] is 457 nM. The residual activity at 0.1 mg/kg with Nitrosomonas europaea [3] stood at 27.4%. The inhibition in vivo at 1 mg/kg in the data set on Nitrosomonas sp. TK794 [4] came to 47.8%.
As to `CCOc1nc(C(Cl)(Cl)Cl)nc(C(Cl)(Cl)Cl)n1`, in data set [1], the lipophilicity (logP) is 4.14. Also, the IC50 in the data set with Nitrosomonas europaea [2] is 437 nM. Also, in the data set with Nitrosomonas europaea [5], the residual activity at 1 mg/kg amounted to 27.3%. In addition, the inhibition in vivo at 1 mg/kg with Nitrosomonas sp. TK794 [4] stood at 25.8%.
For `Fc1ccc(Oc2nc(C(Cl)(Cl)Cl)nc(C(Cl)(Cl)Cl)n2)c(Cl)c1`, in the data set with Nitrosomonas europaea [10], the residual activity at 0.5 mg/kg was 52.2%. The logP in [1] is 5.74. In addition, the IC50 in the data set with Nitrosomonas europaea [2] was 1100 nM. In the data set on Nitrosomonas sp. TK794 [4], the inhibition in vivo at 1 mg/kg turned out to be 57.8%.
As to `CSc1nc(C(Cl)(Cl)Cl)nc(C(Cl)(Cl)Cl)n1`, in the data set on Nitrosomonas europaea [10], the residual activity at 0.5 mg/kg was 18.7%. Further, in data set [1], the logP came to 4.21. Also, the IC50 in the data set on Nitrosomonas europaea [2] is 186 nM. The inhibition in vivo at 0.5 mg/kg in the data set with Nitrosomonas sp. TK794 [9] was determined as 41.3%.
In the case of `CCCCc1nc(C(Cl)(Cl)Cl)nc(C(Cl)(Cl)Cl)n1`, the logP in data set [1] was 5.65. The IC50 with Nitrosomonas europaea [2] was 617 nM. Further, in the data set on Nitrosomonas europaea [5], the residual activity at 1 mg/kg was found to be 29.5%. Besides, the inhibition in vivo at 1 mg/kg with Nitrosomonas sp. TK794 [4] was determined as 33.6%.
For `Cc1nc(C(Cl)(Cl)Cl)nc(C(Cl)(Cl)Cl)n1`, in the data set with Nitrosomonas europaea [10], the residual activity at 0.5 mg/kg stood at 47.2%. In [1], the lipophilicity (logP) stood at 4.07. In the data set with Nitrosomonas europaea [2], the IC50 is 708 nM. Besides, the inhibition in vivo at 0.5 mg/kg in the data set with Nitrosomonas sp. TK794 [9] came to 65%.
With `Clc1cccc(C(Cl)(Cl)Cl)n1` [NITRAPYRIN], in the data set on Nitrosomonas europaea [2], the IC50 is 1910 nM. For the same compound, the residual activity at 1 mg/kg with Nitrosomonas europaea [5] came to 30.1%. Also, the inhibition in vivo at 5 mg/kg in the data set on Nitrosomonas sp. TK794 [6] was 22.9%.
